Measured values reported in ChEMBL document CHEMBL3232907, “A high-throughput cell-based method to predict the unbound drug fraction in the brain” (J Med Chem, 2014).

Columns and labels:
[1] = human, hek293, 0.1 µM
[2] = Unbound fraction in HEK293 cell homogenate at 0.01 uM by equilibrium dialysis based UPLC-MS/MS analysis; type: ADME; conditions: human, hek293, 0.01 µM

CN(C)C(=O)C(CCN1CCC(O)(c2ccc(Cl)cc2)CC1)(c1ccccc1)c1ccccc1 [LOPERAMIDE]
Fu [1]: 0.35

CC(C)NCC(O)COc1cccc2ccccc12 (stereo unspecified) [PROPRANOLOL]
Fu [1]: 0.7

CN(C)CCCN1c2ccccc2CCc2ccc(Cl)cc21 [CLOMIPRAMINE]
Fu [1]: 0.19

CN(C)CCCC1(c2ccc(F)cc2)OCc2cc(C#N)ccc21 (stereo unspecified) [CITALOPRAM]
Fu [1]: 0.81

COC(=O)C1=C(C)NC(C)=C(C(=O)OCCN(C)Cc2ccccc2)C1c1cccc([N+](=O)[O-])c1 (stereo unspecified) [NICARDIPINE]
Fu [1]: 0.095

COCCc1ccc(OCC(O)CNC(C)C)cc1 (stereo unspecified) [METOPROLOL]
Fu [1]: 1

CC[C@H](C)C(=O)O[C@H]1C[C@@H](C)C=C2C=C[C@H](C)[C@H](CC[C@@H]3C[C@@H](O)CC(=O)O3)[C@H]21 [LOVASTATIN]
Fu [1]: 0.22

CC(CN(C)C)CN1c2ccccc2CCc2ccccc21 (stereo unspecified) [TRIMIPRAMINE]
Fu [1]: 0.4

CSc1ccc2c(c1)N(CCC1CCCCN1C)c1ccccc1S2 (stereo unspecified) [THIORIDAZINE]
Fu [1]: 0.049

CNC(=C[N+](=O)[O-])NCCSCc1ccc(CN(C)C)o1 [RANITIDINE]
Fu [1]: 1

COc1ccc2c(c1)c(CC(=O)O)c(C)n2C(=O)c1ccc(Cl)cc1 [INDOMETHACIN]
Fu [1]: 0.79

O=C(O)c1cc(/N=N/c2ccc(S(=O)(=O)Nc3ccccn3)cc2)ccc1O [SULFASALAZINE]
Fu [1]: 0.72

O=C1c2c(O)ccc(O)c2C(=O)c2c(NCCNCCO)ccc(NCCNCCO)c21 [MITOXANTRONE]
Fu [1]: 0.13

Fc1ccc([C@@H]2CCNC[C@H]2COc2ccc3c(c2)OCO3)cc1 [PAROXETINE]
Fu [1]: 0.25

C=CCc1ccccc1OCC(O)CNC(C)C (stereo unspecified) [ALPRENOLOL]
Fu [1]: 0.9

CC(=O)N1CCN(c2ccc(OCC3COC(Cn4ccnc4)(c4ccc(Cl)cc4Cl)O3)cc2)CC1 (stereo unspecified) [KETOCONAZOLE]
Fu [1]: 0.39

NC(=O)N1c2ccccc2C=Cc2ccccc21 [CARBAMAZEPINE]
Fu [1]: 0.97

CCCCN1CCCCC1C(=O)Nc1c(C)cccc1C (stereo unspecified) [BUPIVACAINE]
Fu [1]: 0.89

CN/C(=N/CCSCc1nc[nH]c1C)NC#N [CIMETIDINE]
Fu [1]: 1

Cc1nccn1CC1CCc2c(c3ccccc3n2C)C1=O (stereo unspecified) [ONDANSETRON]
Fu [1]: 0.94

CCCNC(=O)NS(=O)(=O)c1ccc(Cl)cc1 [CHLORPROPAMIDE]
Fu [1]: 1

C[C@@H]1CN(c2c(F)c(N)c3c(=O)c(C(=O)O)cn(C4CC4)c3c2F)C[C@H](C)N1 [SPARFLOXACIN]
Fu [1]: 0.88

CC(C)(C)NC(=O)[C@@H]1C[C@@H]2CCCC[C@@H]2CN1C[C@@H](O)[C@H](Cc1ccccc1)NC(=O)[C@H](CC(N)=O)NC(=O)c1ccc2ccccc2n1
Fu [1]: 0.17

CCN(CC)CCNC(=O)c1cc(Cl)c(N)cc1OC [METOCLOPRAMIDE]
Fu [1]: 0.95

O=C(CCCN1CCC2(CC1)C(=O)NCN2c1ccccc1)c1ccc(F)cc1 [SPIPERONE]
Fu [1]: 0.66

O=C(CCCN1CCC(O)(c2ccc(Cl)cc2)CC1)c1ccc(F)cc1 [HALOPERIDOL]
Fu [1]: 0.52

CC(=O)[C@H]1CC[C@H]2[C@@H]3CCC4=CC(=O)CC[C@]4(C)[C@H]3CC[C@]12C [PROGESTERONE]
Fu [1]: 0.67

COCc1c(C(C)C)nc(C(C)C)c(/C=C/[C@@H](O)C[C@@H](O)CC(=O)O)c1-c1ccc(F)cc1 [CERIVASTATIN]
Fu [1]: 0.55

CC(C)CN(C[C@@H](O)[C@H](Cc1ccccc1)NC(=O)O[C@H]1CCOC1)S(=O)(=O)c1ccc(N)cc1
Fu [1]: 0.92

O=C(O)Cc1ccccc1Nc1c(Cl)cccc1Cl [DICLOFENAC]
Fu [1]: 0.78

CO[C@H]1/C=C/O[C@@]2(C)Oc3c(C)c(O)c4c(O)c(c(/C=N/N5CCN(C)CC5)c(O)c4c3C2=O)NC(=O)/C(C)=C\C=C\[C@H](C)[C@H](O)[C@@H](C)[C@@H](O)[C@@H](C)[C@H](OC(C)=O)[C@@H]1C [RIFAMPIN]
Fu [1]: 0.62

Cc1c(O)cccc1C(=O)N[C@@H](CSc1ccccc1)[C@H](O)CN1C[C@H]2CCCC[C@H]2C[C@H]1C(=O)NC(C)(C)C
Fu [2]: 0.024

Cc1ncc2n1-c1ccc(Cl)cc1C(c1ccccc1F)=NC2 [MIDAZOLAM]
Fu [1]: 0.66

CC(C)(C)NCC(O)COc1ccc(NC(=O)NC2CCCCC2)cc1 (stereo unspecified) [TALINOLOL]
Fu [1]: 0.85

COc1ccc2c(c1)[C@]13CCCC[C@@H]1[C@H](C2)N(C)CC3 [DEXTROMETHORPHAN]
Fu [1]: 0.82

CCCc1nc2c(C)cc(-c3nc4ccccc4n3C)cc2n1Cc1ccc(-c2ccccc2C(=O)O)cc1
Fu [1]: 0.42
